Results on 2 compounds are retold here after US20260021061A1, “ARIADNE AND ANALOGS FOR THE TREATMENT OF NEUROLOGICAL AND NEUROMUSCLAR DISORDERS” (priority 2022, published 2026).

The test system of test [1] is auxilin knockout (KO) mice. Kind of test: Hind limb clasping in auxilin KO mouse model of Parkinson's Disease. The conditions noted are these: Aux-KO mice; 10 mg/kg intraperitoneal; 15 to 30 minutes after treatment. It is filed as in vivo. From the text:
R-Ariadne ameliorates motor abnormalities in a mouse model of Parkinson's Disease. In the 1978 patent from the Bristol Laboratories, the inventors noted complete remission of Parkinson's symptoms in two patients (Partyka el al., U.S. Pat. No. 4,105,695, 1978). To address and examine these claims via reverse translation in mice, we used a novel model of PD based on auxilin knockout (KO) mice (Vidyadhara et al., 2022). Auxilin is a clathrin uncoating protein that participates in clathrin mediated endocytosis of synaptic vesicles (SV), enabling SV recycling and neurotransmission (Vidyadhara et al., 2022). Loss-of-function mutations in auxilin (DNAJC6/PARK19) cause PD. Auxilin KO mice display cardinal features of PD such as progressive motor deficits, nigral dopaminergic neuronal loss, α-synuclein pathology, and neuroinflammation. 9-12 month old Aux-KO mice were previously shown to respond to L-DOPA treatment, which ameliorated PD-like motor abnormalities (Vidyadhara et al., 2022). […] The balance beam test evaluates fine motor skills such as ability to walk on a raised narrow beam to reach a safety box, measured as a number of runs/minute and time taken to cross the beam (FIGS. 9-10). […]

In test [2] the test system is mice. In words: Novelty suppressed feeding (NSF). It is filed as in vivo, mouse. The conditions noted are these: 7 days post-drug administration; 10 mg/kg. The method, then: (§1) FIGS. 7A-D Effect of Ariadne in behavioral conflict paradigms. (a) Survival plot of effect of (R)-Ariadne (10 mg/kg) on latency to feed in the novelty suppressed feeding (NSF) test 7 days post a single drug administration. (b) Effect of 6 mg/kg and 10 mg/kg (R)-Ariadne on latency to feed in the novelty suppressed feeding (NSF) test 7 days post a single drug administration. (c) Effect of (R)-Ariadne and (±)-DOPR on the time spent in the open vs closed arms and (d) corresponding arm entries 30 minutes and 4 hours post a single subcutaneous injection.

Test [3] concerns mice. Kind of test: Elevated plus maze (EPM). Conditions: 30 minutes and 4 hours post single s.c. injection. The class given is in vivo, mouse. As for the experimental part:
as §1

The target of another test is T1, Opiate μ (OP3, MOP) (Homo sapiens, UniProt P35372).
T1 construct: purchased Eurofins-Panlabs (contract screen SafetyScreen44) assay ID 260410
T1 sequence (P35372 whole entry): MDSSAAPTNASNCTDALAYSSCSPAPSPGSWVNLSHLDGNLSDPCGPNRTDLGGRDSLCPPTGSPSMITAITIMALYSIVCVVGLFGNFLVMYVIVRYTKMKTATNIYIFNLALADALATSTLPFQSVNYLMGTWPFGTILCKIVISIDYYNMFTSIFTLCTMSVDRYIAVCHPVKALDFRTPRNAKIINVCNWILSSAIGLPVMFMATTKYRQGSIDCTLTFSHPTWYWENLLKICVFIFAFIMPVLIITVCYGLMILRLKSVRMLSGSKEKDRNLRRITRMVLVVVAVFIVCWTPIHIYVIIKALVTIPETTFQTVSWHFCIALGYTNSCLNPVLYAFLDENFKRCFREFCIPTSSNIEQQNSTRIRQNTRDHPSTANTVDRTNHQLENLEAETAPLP
In words: SafetyScreen44 260410. The class given is binding. Conditions: 10 μM; [3H]Diprenorphine; recombinant. The method, then: (§2) A broad screen of 44 molecular targets (SafetyScreen44, Eurofins-Panlabs) for Ariadne were performed, which includes G protein-coupled receptors, steroid nuclear receptors, ion channels, neurotransmitter transporters, and metabolic and signaling enzymes. Only two molecular targets, 5-HT2A and 5-HT2B receptors, emerged above the positive hit threshold, defined as 50% displacement of standard radioligands by 10 uM concentration of Ariadne (FIG. 1b, and Table 1).
(§3) For species, “H”=human, “R”=rat. Test compound screened at all targets at concentration of 10 μM.

The target in a further test is T2, Dopamine D2S (Homo sapiens, UniProt P14416).
T2 construct: Eurofins-Panlabs (contract screen) 219700
In words: SafetyScreen44 219700. Conditions: 10 μM; [3H]Spiperone; recombinant. The class given is binding. The method, then:
as §2, §3

For the next test, the target named is T3, Opiate δ1 (OP1, DOP) (Homo sapiens, UniProt P41143).
T3 construct: purchased Eurofins-Panlabs (contract screen SafetyScreen44) assay ID 260130
Kind of test: SafetyScreen44 260130. The class given is binding. The conditions noted are these: 10 μM; [3H]Naltrindole; recombinant. As for the experimental part: as §2, §3

In test [4] the target is T4, Cholinesterase, Acetyl, ACES (Homo sapiens, UniProt P22303).
T4 construct: Eurofins-Panlabs (contract screen) 104010
T4 sequence (P22303 32-614): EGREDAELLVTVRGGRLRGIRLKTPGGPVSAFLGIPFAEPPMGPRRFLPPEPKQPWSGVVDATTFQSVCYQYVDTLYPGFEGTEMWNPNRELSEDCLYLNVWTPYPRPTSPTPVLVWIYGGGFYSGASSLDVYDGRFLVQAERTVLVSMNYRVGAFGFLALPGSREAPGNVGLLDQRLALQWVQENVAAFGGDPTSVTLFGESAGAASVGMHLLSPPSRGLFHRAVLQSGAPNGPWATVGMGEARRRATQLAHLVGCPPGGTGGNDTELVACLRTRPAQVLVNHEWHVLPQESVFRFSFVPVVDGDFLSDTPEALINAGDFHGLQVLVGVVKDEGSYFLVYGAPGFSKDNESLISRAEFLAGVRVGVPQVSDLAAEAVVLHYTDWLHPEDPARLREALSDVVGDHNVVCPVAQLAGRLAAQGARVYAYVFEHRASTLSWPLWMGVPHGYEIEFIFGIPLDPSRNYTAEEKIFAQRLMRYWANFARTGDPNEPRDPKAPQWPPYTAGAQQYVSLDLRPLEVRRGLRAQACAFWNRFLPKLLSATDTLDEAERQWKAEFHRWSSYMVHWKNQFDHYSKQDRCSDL
In words: SafetyScreen44 104010. The conditions noted are these: 10 μM; substrate Acetylthiocholine; recombinant. It is filed as biochemical. The method, then: as §2, §3

In test [5] the target is T5, Protein Tyrosine Kinase, LCK (Homo sapiens, UniProt P06239).
T5 construct: Eurofins-Panlabs (contract screen) 176020
T5 sequence (P06239 whole entry): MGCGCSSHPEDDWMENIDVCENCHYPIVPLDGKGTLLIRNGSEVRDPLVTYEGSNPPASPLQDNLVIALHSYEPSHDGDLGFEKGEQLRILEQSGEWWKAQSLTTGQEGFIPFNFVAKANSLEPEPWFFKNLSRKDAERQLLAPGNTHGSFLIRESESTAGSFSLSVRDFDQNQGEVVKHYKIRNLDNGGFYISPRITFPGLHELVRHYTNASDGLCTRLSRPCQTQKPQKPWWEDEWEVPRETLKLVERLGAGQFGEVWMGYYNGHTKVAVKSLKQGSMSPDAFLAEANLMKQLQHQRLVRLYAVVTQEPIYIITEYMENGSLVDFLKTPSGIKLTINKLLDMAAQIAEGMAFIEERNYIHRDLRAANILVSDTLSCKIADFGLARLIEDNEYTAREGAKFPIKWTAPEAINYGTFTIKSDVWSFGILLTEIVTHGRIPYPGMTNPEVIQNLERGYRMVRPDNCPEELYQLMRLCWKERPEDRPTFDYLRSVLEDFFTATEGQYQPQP
In words: SafetyScreen44 176020. The class given is biochemical. Conditions: 10 μM; Poly(Glu:Tyr); recombinant. The method, then:
as §2, §3

The target of another test is hSERT (Homo sapiens, UniProt P31645). Kind of test: SERT-mediated cell uptake assay (fluorescence uptake inhibition). It is filed as cell-based.
Chain of hSERT (P31645 whole entry): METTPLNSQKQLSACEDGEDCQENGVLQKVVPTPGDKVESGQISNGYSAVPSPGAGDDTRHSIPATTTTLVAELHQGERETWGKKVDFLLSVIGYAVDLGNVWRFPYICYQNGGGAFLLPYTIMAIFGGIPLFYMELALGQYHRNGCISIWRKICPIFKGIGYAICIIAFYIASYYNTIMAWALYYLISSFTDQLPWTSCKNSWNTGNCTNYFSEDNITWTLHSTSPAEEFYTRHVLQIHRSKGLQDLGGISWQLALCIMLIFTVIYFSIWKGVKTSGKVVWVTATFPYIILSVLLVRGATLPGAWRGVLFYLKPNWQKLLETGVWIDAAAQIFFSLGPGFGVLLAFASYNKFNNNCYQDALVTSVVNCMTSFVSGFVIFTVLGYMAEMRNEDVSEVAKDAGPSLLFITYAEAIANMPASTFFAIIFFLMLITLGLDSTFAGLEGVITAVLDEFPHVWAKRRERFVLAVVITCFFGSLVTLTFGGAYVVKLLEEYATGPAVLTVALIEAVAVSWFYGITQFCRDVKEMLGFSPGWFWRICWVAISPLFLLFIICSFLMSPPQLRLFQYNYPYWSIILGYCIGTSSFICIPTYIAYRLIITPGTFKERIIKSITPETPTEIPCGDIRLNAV
The target of test [6] is T6, Nicotinic Acetylcholine alpha4beta2, Cytisine (Homo sapiens, UniProt P17787+P43681).
T6 construct: purchased Eurofins-Panlabs (contract screen SafetyScreen44) assay ID 299031
T6 sequence (P43681 29-627 limits assumed): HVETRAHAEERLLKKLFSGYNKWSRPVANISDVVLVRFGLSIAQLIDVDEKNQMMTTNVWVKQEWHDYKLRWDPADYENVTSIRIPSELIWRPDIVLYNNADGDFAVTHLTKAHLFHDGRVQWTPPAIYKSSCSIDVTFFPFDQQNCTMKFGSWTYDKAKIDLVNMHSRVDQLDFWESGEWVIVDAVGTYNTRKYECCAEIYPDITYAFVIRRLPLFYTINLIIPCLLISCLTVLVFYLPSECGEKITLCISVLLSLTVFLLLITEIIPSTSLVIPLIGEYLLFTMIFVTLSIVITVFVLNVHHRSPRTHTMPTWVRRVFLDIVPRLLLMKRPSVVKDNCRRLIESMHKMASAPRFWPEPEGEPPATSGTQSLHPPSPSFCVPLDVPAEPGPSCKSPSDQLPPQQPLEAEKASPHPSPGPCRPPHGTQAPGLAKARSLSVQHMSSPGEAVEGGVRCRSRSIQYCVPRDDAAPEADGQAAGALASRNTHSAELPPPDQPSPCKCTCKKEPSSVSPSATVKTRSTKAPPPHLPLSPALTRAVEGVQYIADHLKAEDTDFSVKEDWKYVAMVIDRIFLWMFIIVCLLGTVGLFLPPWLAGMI
T6 sequence (P17787 26-502): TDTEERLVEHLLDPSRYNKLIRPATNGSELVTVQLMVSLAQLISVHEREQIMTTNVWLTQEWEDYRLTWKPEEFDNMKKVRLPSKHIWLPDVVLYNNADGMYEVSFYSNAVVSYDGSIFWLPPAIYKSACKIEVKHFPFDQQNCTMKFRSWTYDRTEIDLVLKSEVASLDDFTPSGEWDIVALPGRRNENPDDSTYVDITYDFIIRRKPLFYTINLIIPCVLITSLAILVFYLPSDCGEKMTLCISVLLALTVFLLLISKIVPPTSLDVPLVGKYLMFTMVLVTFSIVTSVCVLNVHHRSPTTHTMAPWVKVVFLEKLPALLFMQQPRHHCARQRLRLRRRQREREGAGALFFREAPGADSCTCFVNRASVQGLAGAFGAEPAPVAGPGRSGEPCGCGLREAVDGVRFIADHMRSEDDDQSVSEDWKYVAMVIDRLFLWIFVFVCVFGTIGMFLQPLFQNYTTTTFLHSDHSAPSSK
Kind of test: SafetyScreen44 299031. It is filed as binding. Conditions: 10 μM; [3H]Cytisine; recombinant. The method, then:
as §2, §3

A further test deals with rats. The conditions noted are these: rat, in vivo; cited from earlier work.
In another test the target is T7, Phosphodiesterase PDE4D2 (Homo sapiens, UniProt Q08499).
T7 construct: Eurofins-Panlabs (contract screen) 154420
T7 sequence (Q08499 303-809 limits assumed): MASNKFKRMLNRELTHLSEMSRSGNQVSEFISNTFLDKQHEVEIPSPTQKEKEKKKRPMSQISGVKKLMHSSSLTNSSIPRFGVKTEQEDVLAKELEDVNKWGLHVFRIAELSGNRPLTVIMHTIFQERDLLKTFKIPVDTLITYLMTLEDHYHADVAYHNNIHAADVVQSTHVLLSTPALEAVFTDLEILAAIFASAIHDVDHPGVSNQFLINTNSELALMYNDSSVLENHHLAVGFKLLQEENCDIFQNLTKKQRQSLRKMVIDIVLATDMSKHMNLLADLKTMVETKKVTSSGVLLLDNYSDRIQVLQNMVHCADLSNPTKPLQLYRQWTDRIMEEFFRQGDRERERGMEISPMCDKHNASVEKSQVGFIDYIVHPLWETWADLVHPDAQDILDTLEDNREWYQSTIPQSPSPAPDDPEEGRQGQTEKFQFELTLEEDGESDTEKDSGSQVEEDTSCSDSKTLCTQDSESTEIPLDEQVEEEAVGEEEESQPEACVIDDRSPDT
In words: SafetyScreen44 154420. The class given is biochemical. The conditions noted are these: 10 μM; FAM-cAMP; recombinant. As for the experimental part:
as §2, §3

In the next test the target is T8, Adrenergic alpha2A (Homo sapiens, UniProt P08913).
T8 construct: Eurofins-Panlabs (contract screen) 203630
T8 sequence (P08913 whole entry): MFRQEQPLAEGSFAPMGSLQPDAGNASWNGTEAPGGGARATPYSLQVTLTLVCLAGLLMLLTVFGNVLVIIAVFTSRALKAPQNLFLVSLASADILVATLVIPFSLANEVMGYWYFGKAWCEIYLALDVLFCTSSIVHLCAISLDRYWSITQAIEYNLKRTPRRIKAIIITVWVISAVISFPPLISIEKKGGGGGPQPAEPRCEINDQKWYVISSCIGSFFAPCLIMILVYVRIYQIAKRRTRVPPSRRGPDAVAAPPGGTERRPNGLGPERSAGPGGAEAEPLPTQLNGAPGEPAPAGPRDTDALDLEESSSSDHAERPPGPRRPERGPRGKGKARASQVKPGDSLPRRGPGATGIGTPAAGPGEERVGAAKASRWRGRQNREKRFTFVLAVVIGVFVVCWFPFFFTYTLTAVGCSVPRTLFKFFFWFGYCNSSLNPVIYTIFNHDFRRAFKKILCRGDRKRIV
Kind of test: SafetyScreen44 203630. It is filed as binding. Conditions: 10 μM; [3H]Rauwolscine; recombinant. The method, then: as §2, §3

Another test addresses T9, Cyclooxygenase COX-2 (Homo sapiens, UniProt P35354).
T9 construct: Eurofins-Panlabs (contract screen) 118030
Kind of test: SafetyScreen44 118030. It is filed as biochemical. The conditions noted are these: 10 μM; Arachidonic acid; recombinant. As for the experimental part:
as §2, §3

T9 sequence (P35354 18-604): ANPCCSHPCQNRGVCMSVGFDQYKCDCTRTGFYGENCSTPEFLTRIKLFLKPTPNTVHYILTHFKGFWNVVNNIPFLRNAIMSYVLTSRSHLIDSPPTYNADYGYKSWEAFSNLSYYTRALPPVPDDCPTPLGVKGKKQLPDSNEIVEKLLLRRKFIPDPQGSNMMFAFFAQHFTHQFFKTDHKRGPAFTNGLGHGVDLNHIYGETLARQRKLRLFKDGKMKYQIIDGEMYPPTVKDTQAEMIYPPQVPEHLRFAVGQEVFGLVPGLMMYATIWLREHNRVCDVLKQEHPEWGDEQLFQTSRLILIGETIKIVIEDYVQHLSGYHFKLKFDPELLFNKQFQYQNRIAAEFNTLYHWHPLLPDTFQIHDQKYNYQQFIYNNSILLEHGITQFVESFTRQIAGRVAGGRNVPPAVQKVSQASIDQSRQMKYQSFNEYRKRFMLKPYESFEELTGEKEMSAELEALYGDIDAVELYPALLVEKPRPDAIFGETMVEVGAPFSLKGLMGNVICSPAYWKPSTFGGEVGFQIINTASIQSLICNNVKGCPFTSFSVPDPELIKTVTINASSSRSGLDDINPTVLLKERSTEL

Consider `CC[C@@H](N)Cc1cc(OC)c(C)cc1OC` [(R)-Ariadne], for which, in test [1], the clasping duration entry is given as “down to zero” and the hindlimb clasping score entry is given as “down to zero”. Moreover, the “latency to bite the presented food pellets” value with mice [2] is listed as “dose-dependent trend toward reducing latency”. Moreover, the “entries and time spent in the open arms” value with mice [3] is recorded as “acute anxiogenic-like effect”.

The term IC50 denotes the concentration that gives 50% inhibition. Low values mean greater potency in that assay, high ones weaker potency in that assay. With `CCC(N)Cc1cc(OC)c(C)cc1OC` (racemic) [Compound 32, 1-(2,5-dimethoxy-4-methylphenyl)butan-2-amine], the “% Response” value is reported as −11% on Opiate μ (OP3, MOP); 1% on Dopamine D2S; 4% on Opiate δ1 (OP1, DOP); 12% in test [4]; 13% in test [5]; −31% in [6]. For the same compound, the “% Response” value at Phosphodiesterase PDE4D2 was −2%; on Adrenergic alpha2A, 34%; on Cyclooxygenase COX-2 it was −2%. The IC50 on hSERT is more than 50 µM. In addition, in the test with rats, the “substitution for MDMA stimulus” value is recorded as “full substitution”. Also, in the test on rats, the “substitution in LSD trained animals” value is given as “substituted responding”.
